What was measured:
Test in all cases: relative viability (nuclei count vs DMSO), 5 days (fraction); higher = more cells survive
[1] = compound: CC1(C)CNc2cc(NC(=O)c3cccnc3NCc3ccncc3)ccc21 [Motesanib] + O=C(CCCCCCC(=O)Nc1ccccc1)NO [Vorinostat] (partner 1 µM)
In short: (§1)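 Lung cancer cell lines were seeded in 1536-well plates and dosed by pin tool the next day, with either a single drug or a fixed anchor-drug dose combined with five library-drug doses (not always all listed) spaced in √10 steps. Five days later, one step fixed the cells and stained their nuclei (final 0.05% Triton X-100, 1% formaldehyde, 1 ug/ml Hoechst), and nuclei were counted on 4× images. Relative viability is the nuclei count in treated wells divided by the count in vehicle wells, and each value is the median of duplicate plates.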

[2] = compound: CC1(C)CNc2cc(NC(=O)c3cccnc3NCc3ccncc3)ccc21 [Motesanib] + N=C(N)NC(=N)NCCc1ccccc1 [Phenformin] (partner 250 µM)
In short: as §1

[3] = compound: C[C@@]1(C(=O)Nc2ccc(F)nc2)CCCN1c1nc(Nc2cc(C3CC3)n[nH]2)c2cccn2n1 + O=C(CCCCCCC(=O)Nc1ccccc1)NO [Vorinostat] (partner 1 µM)
In short: as §1

[4] = compound: C[C@@]1(C(=O)Nc2ccc(F)nc2)CCCN1c1nc(Nc2cc(C3CC3)n[nH]2)c2cccn2n1 + CS(=O)(=O)CCNCc1ccc(-c2ccc3ncnc(Nc4ccc(OCc5cccc(F)c5)c(Cl)c4)c3c2)o1 [Lapatinib] (partner 2 µM)
In short: as §1

Cell Line	relative viability ([1]; first compound 0.01 µM)	relative viability ([1]; first compound 0.03162 µM)	relative viability ([1]; first compound 0.1 µM)	relative viability ([1]; first compound 0.3162 µM)	relative viability ([1]; first compound 1 µM)	relative viability ([2]; first compound 0.01 µM)	relative viability ([2]; first compound 0.03162 µM)	relative viability ([2]; first compound 0.1 µM)	relative viability ([2]; first compound 0.3162 µM)	relative viability ([2]; first compound 1 µM)	relative viability ([3]; first compound 0.04 µM)	relative viability ([3]; first compound 0.1265 µM)	relative viability ([3]; first compound 0.4 µM)	relative viability ([3]; first compound 1.265 µM)	relative viability ([4]; first compound 0.04 µM)	relative viability ([4]; first compound 0.1265 µM)	relative viability ([4]; first compound 0.4 µM)	relative viability ([4]; first compound 1.265 µM)
NCI-H1975	0.738	0.616	0.707	0.739	0.652	0.407	0.391	0.393	0.409	0.441	0.639	0.62	0.576	0.316	0.844	0.88	0.601	0.594
CAL-12T	0.797	0.847	0.692	0.795	0.86	0.562	0.487	0.61	0.627	0.534	0.574	0.567	0.461	0.33	0.8	0.442	0.564	0.555
NCI-H1623						0.551	0.613	0.594	0.617	0.578								
HCC-44	1.14	1.02	1.17	1.08	1.09	0.129	0.174	0.252	0.309	0.209	1.08	1.02	0.887	1.08	0.894	0.794	0.647	0.688
EKVX	0.777	0.819	0.777	0.895	0.867	0.225	0.231	0.242	0.248	0.24	0.616	0.648	0.509	0.684	0.184	0.162	0.137	0.133
NCI-H1651	0.475	0.605	0.575	0.583	0.581	0.295	0.367	0.342	0.352	0.339	0.547	0.499	0.517	0.448	0.707	0.706	0.693	0.746
NCI-H1944	0.52	0.562	0.51	0.634	0.537	0.184	0.2	0.221	0.246	0.254	0.548	0.448	0.482	0.545	0.679	0.536	0.426	0.582
NCI-H1703															0.996	0.867	0.898	
Calu-6															1.14	1.08	0.95	0.693
EBC-1															0.208	0.19	0.239	0.205
SW 1573	0.77	0.799	0.738	0.834	1.04	0.468	0.343	0.388	0.36	0.421	0.667	0.585	0.482	0.263	1.04	0.902	0.729	1
A-427	0.96	0.87	0.913	0.89	0.88	0.239	0.294	0.319	0.374	0.323	0.93	0.857	0.864	0.49	1.04	0.934	1.09	1.08
NCI-H2347	0.538	0.555	0.527	0.704	0.621	0.419	0.45	0.372	0.502	0.466	0.581	0.487	0.415	0.543	0.955	0.874	0.842	0.959
NCI-H1355	0.635	0.659	0.707	0.702	0.593	0.436	0.416	0.49	0.482	0.475	0.578	0.499	0.403	0.505	0.908	0.831	0.711	0.654
NCI-H358	0.641	0.67	0.71	0.819	0.649	0.384	0.414	0.331	0.418	0.468	0.451	0.35	0.203	0.156	0.304	0.22	0.259	0.251
PC-3 [JPC-3]	0.686	0.71	0.774	0.828	0.789	0.482	0.478	0.458	0.512	0.507	0.717	0.718	0.755	0.525	0.457	0.403	0.382	0.398
NCI-H2228	0.667	0.539	0.737	0.528	0.612	0.26	0.329	0.257	0.394	0.208	0.474	0.444	0.513	0.298	1.18	0.721	0.908	0.578
HOP-62	0.668	0.677	0.599	0.972	0.799	0.641	0.694	0.678	0.74	0.761	0.589	0.529	0.464	0.527	0.978	0.907	1.05	1.04
HARA	0.573	0.706	0.538	0.638	0.565	0.479	0.433	0.435	0.431	0.359	0.364	0.233	0.31	0.433	0.409	0.466	0.248	0.244
NCI-H838	0.735	0.75	0.801	0.779	0.737	0.547	0.667	0.514	0.745	0.656	0.7	0.627	0.535	0.266	0.895	0.85	0.597	0.622
NCI-H1755	0.672	0.759	0.808	0.945	0.747	0.618	0.631	0.665	0.747	0.619	0.796	0.609	0.653	0.726	1.02	0.864	0.858	0.994

— the supplement of paper PMC10307832
